{"source": "ChEMBL document CHEMBL3351909", "about": "“In vitro and in vivo characterization of a benzofuran derivative, a potential anticancer agent, as a novel Aurora B kinase inhibitor” (Eur J Med Chem, 2015)", "key": {"MDA-MB-231": {"tested_on": "MDA-MB-231", "assay": "Cytotoxicity against human MDA-MB-231 cells after 96 hrs by CCK-8 assay", "format": "functional, cell-based", "details": "MDA-MB-231, 96 h"}, "[1]": {"assay": "Cytotoxicity against human PC3 cells after 96 hrs by CCK-8 assay", "format": "functional, cell-based", "details": "PC-3, 96 h"}, "LoVo": {"tested_on": "LoVo", "assay": "Cytotoxicity against human LoVo cells after 96 hrs by CCK-8 assay", "format": "functional, cell-based"}, "[2]": {"assay": "Cytotoxicity against human CaSki cells after 96 hrs by CCK-8 assay", "format": "functional, cell-based", "details": "Ca-Ski"}, "SW-620 [3]": {"tested_on": "SW-620", "assay": "Growth inhibition of human SW620 cells at 5 to 20 uM after 96 hrs by CCK-8 assay", "format": "functional, cell-based"}, "HeLa [4]": {"tested_on": "HeLa", "assay": "Growth inhibition of human HeLa cells at 5 to 20 uM after 96 hrs by CCK-8 assay", "format": "functional, cell-based"}, "HepG2 [5]": {"tested_on": "HepG2", "assay": "Growth inhibition of human HepG2 cells at 5 to 20 uM after 96 hrs by CCK-8 assay", "format": "functional, cell-based"}, "HepG2 [6]": {"tested_on": "HepG2", "assay": "Inhibition of colony formation in human HepG2 cells at 5 uM after 96 hrs by crystal violet staining-based assay", "format": "functional, cell-based"}, "SW-620 [7]": {"tested_on": "SW-620", "assay": "Inhibition of colony formation in human SW620 cells at 5 uM after 96 hrs by crystal violet staining-based assay", "format": "functional, cell-based"}, "HeLa [8]": {"tested_on": "HeLa", "assay": "Inhibition of colony formation in human HeLa cells after 96 hrs by crystal violet staining-based assay", "format": "functional, cell-based"}, "HepG2 [9]": {"tested_on": "HepG2", "assay": "Inhibition of colony formation in human HepG2 cells after 96 hrs by crystal violet staining-based assay", "format": "functional, cell-based"}, "SW-620 [10]": {"tested_on": "SW-620", "assay": "Inhibition of colony formation in human SW620 cells after 96 hrs by crystal violet staining-based assay", "format": "functional, cell-based"}, "HepG2 [11]": {"tested_on": "HepG2", "assay": "Cell cycle arrest in human HepG2 cells assessed as accumulation at G2/M phase at 20 uM after 48 hrs by flow cytometry relative to control", "format": "functional"}, "HepG2 [12]": {"tested_on": "HepG2", "assay": "Cell cycle arrest in human HepG2 cells assessed as reduction in G1 phase at 20 uM after 48 hrs by flow cytometry relative to control", "format": "functional, cell-based"}, "HeLa [13]": {"tested_on": "HeLa", "assay": "Cell cycle arrest in human HeLa cells assessed as accumulation at G2/M phase at 20 uM after 48 hrs by flow cytometry relative to control", "format": "functional"}, "Aurora kinase B [14]": {"target": "T1, Aurora kinase B (Homo sapiens, UniProt Q96GD4)", "T1 sequence (Q96GD4 whole entry)": "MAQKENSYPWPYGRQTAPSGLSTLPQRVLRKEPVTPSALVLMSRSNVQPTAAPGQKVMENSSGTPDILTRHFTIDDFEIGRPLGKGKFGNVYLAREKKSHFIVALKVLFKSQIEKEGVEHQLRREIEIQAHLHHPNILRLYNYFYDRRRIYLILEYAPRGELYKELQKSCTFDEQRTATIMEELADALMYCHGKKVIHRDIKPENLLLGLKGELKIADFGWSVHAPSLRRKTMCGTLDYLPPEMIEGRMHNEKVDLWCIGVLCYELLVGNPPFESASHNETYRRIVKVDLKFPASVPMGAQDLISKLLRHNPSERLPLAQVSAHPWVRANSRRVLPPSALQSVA", "assay": "Inhibition of AURKB in human HeLa cells assessed as reduction in histone H3 phosphorylation at 5 to 20 uM after 48 hrs by Western blotting analysis", "format": "cell-based"}, "Aurora kinase B [15]": {"target": "T1, Aurora kinase B", "assay": "Inhibition of AURKB in human SW620 cells assessed as reduction in histone H3 phosphorylation at 5 to 20 uM after 48 hrs by Western blotting analysis", "format": "cell-based", "details": "SW-620"}, "Aurora kinase B [16]": {"target": "T1, Aurora kinase B", "assay": "Inhibition of AURKB in human HepG2 cells assessed as reduction in histone H3 phosphorylation at 20 uM after 48 hrs by Western blotting analysis", "format": "cell-based"}, "Aurora kinase B [17]": {"target": "T1, Aurora kinase B", "assay": "Inhibition of AURKB in human HeLa cells assessed as reduction in histone H3 expression at 5 to 20 uM after 48 hrs by Western blotting analysis", "format": "cell-based"}, "Aurora kinase B [18]": {"target": "T1, Aurora kinase B", "assay": "Inhibition of AURKB in human SW620 cells assessed as reduction in histone H3 expression at 5 to 20 uM after 48 hrs by Western blotting analysis", "format": "cell-based", "details": "SW-620"}, "Aurora kinase B [19]": {"target": "T1, Aurora kinase B", "assay": "Inhibition of AURKB in human HepG2 cells assessed as reduction in histone H3 expression at 5 to 20 uM after 48 hrs by Western blotting analysis", "format": "cell-based"}, "Aurora kinase B [20]": {"target": "T1, Aurora kinase B", "assay": "Inhibition of AURKB in human HeLa cells assessed as reduction in Aurora B expression at 5 to 20 uM after 48 hrs by Western blotting analysis", "format": "cell-based"}, "Aurora kinase B [21]": {"target": "T1, Aurora kinase B", "assay": "Inhibition of AURKB in human SW620 cells assessed as reduction in Aurora B expression expression at 5 to 20 uM after 48 hrs by Western blotting analysis", "format": "cell-based", "details": "SW-620"}, "Aurora kinase B [22]": {"target": "T1, Aurora kinase B", "assay": "Inhibition of AURKB in human HepG2 cells assessed as reduction in Aurora B expression expression at 5 to 20 uM after 48 hrs by Western blotting analysis", "format": "cell-based"}, "Aurora kinase B [23]": {"target": "T1, Aurora kinase B", "assay": "Inhibition of AURKB in human HepG cells assessed as reduction in histone H3 phosphorylation at 5 to 20 uM after 48 hrs by […] analysis", "format": "cell-based"}, "[24]": {"assay": "Antitumor activity against human QGY7401 cells xenografted in nude mouse assessed as reduction in tumor weight at 10 mg/kg, ip qd administered for 14 days measured on day 18 (reference value: 2.24 +/- 0.20 g)", "format": "functional", "details": "route intraperitoneal"}, "[25]": {"assay": "Antitumor activity against human QGY7401 cells xenografted in nude mouse assessed as reduction in tumor weight at 20 mg/kg, ip qd administered for 14 days measured on day 18 (reference value: 2.24 +/- 0.20 g)", "format": "functional", "details": "route intraperitoneal"}, "[26]": {"assay": "Antitumor activity against human QGY7401 cells xenografted in nude mouse assessed as reduction in body weight at 10 mg/kg, ip qd administered for 14 days measured on day 18 (reference value: 24.13 +/- 2.18 g)", "format": "functional", "details": "route intraperitoneal"}, "[27]": {"assay": "Antitumor activity against human QGY7401 cells xenografted in nude mouse assessed as reduction in body weight at 20 mg/kg, ip qd administered for 14 days measured on day 18 (reference value: 24.13 +/- 2.18 g)", "format": "functional", "details": "route intraperitoneal"}, "[28]": {"assay": "Antitumor activity against human QGY7401 cells xenografted in nude mouse assessed as inhibition of tumor growth at 10 mg/kg, ip qd administered for 14 days measured on day 18 relative to control", "format": "functional", "details": "route intraperitoneal, read-out: TGI"}, "[29]": {"assay": "Antitumor activity against human QGY7401 cells xenografted in nude mouse assessed as inhibition of tumor growth at 20 mg/kg, ip qd administered for 14 days measured on day 18 relative to control", "format": "functional", "details": "route intraperitoneal, read-out: TGI"}, "Mus musculus [30]": {"tested_on": "Mus musculus", "assay": "Toxicity in nude mouse xenografted with human QGY7401 cells at 10 to 20 mg/kg, ip qd administered for 14 days measured on day 18", "format": "organism-based", "design": "dose 10-20 mg/kg, route intraperitoneal", "details": "in vivo, 336 h"}, "Homo sapiens [31]": {"tested_on": "Homo sapiens", "assay": "Inhibition of histone H3 phosphorylation in human QGY7401 cells xenografted in nude mouse at 10 to 20 mg/kg, ip qd administered for 14 days by hematoxylin and eosin staining-based microscopic analysis", "format": "functional, organism-based"}, "Homo sapiens [32]": {"tested_on": "Homo sapiens", "assay": "Inhibition of histone H3 phosphorylation in human QGY7401 cells xenografted in ip dosed nude mouse administered qd for 14 days by Hematoxylin and eosin staining-based microscopic analysis", "format": "functional, organism-based"}, "Mus musculus [33]": {"tested_on": "Mus musculus", "assay": "Acute toxicity in mouse up to 1000 mg/kg, ip qd administered for 2 weeks", "format": "organism-based", "design": "dose 1000 mg/kg, route intraperitoneal", "details": "in vivo, 336 h"}}, "note": "Calls of active or inactive are those of the source. No cut-off for these calls is given here."}
{"smiles": "O=C1/C(=C\\c2ccc(O)c(O)c2)Oc2ccccc21", "values": [{"measurement": "IC50", "setting": "MDA-MB-231", "result": "> 50", "unit": "µM"}, {"measurement": "IC50", "setting": "[1]", "result": "> 50", "unit": "µM"}, {"measurement": "IC50", "setting": "LoVo", "result": "> 50", "unit": "µM"}, {"measurement": "IC50", "setting": "[2]", "result": "> 50", "unit": "µM"}, {"measurement": "growth inhibition (GI)", "setting": "SW-620 [3]", "result": "Active"}, {"measurement": "growth inhibition (GI)", "setting": "HeLa [4]", "result": "Active"}, {"measurement": "growth inhibition (GI)", "setting": "HepG2 [5]", "result": "Active"}, {"measurement": "inhibition", "setting": "HepG2 [6]", "result": "Active"}, {"measurement": "inhibition", "setting": "SW-620 [7]", "result": "Active"}, {"measurement": "inhibition", "setting": "HeLa [8]", "result": "Dose-dependent effect"}, {"measurement": "inhibition", "setting": "HepG2 [9]", "result": "Dose-dependent effect"}, {"measurement": "inhibition", "setting": "SW-620 [10]", "result": "Dose-dependent effect"}, {"measurement": "Ratio", "setting": "HepG2 [11]", "result": 2}, {"measurement": "Activity", "setting": "HepG2 [12]", "result": "Active"}, {"measurement": "Ratio", "setting": "HeLa [13]", "result": 1.3}, {"measurement": "inhibition", "setting": "Aurora kinase B [14]", "result": "Active"}, {"measurement": "inhibition", "setting": "Aurora kinase B [15]", "result": "Active"}, {"measurement": "inhibition", "setting": "Aurora kinase B [16]", "result": "Active"}, {"measurement": "inhibition", "setting": "Aurora kinase B [17]", "result": "Active"}, {"measurement": "inhibition", "setting": "Aurora kinase B [18]", "result": "Active"}, {"measurement": "inhibition", "setting": "Aurora kinase B [19]", "result": "Active"}, {"measurement": "inhibition", "setting": "Aurora kinase B [20]", "result": "Active"}, {"measurement": "inhibition", "setting": "Aurora kinase B [21]", "result": "Active"}, {"measurement": "inhibition", "setting": "Aurora kinase B [22]", "result": "Active"}, {"measurement": "inhibition", "setting": "Aurora kinase B [23]", "result": "Active"}, {"measurement": "Activity", "setting": "[24]", "result": 1.71, "unit": "g"}, {"measurement": "Activity", "setting": "[25]", "result": 1.44, "unit": "g"}, {"measurement": "Activity", "setting": "[26]", "result": 21.87, "unit": "g"}, {"measurement": "Activity", "setting": "[27]", "result": 22.14, "unit": "g"}, {"measurement": "inhibition in vivo at 10 mg/kg", "setting": "[28]", "result": 39.2, "unit": "%"}, {"measurement": "inhibition in vivo at 20 mg/kg", "setting": "[29]", "result": 48.1, "unit": "%"}, {"measurement": "Activity", "setting": "Mus musculus [30]", "result": "Non-toxic"}, {"measurement": "inhibition", "setting": "Homo sapiens [31]", "result": "Active"}, {"measurement": "inhibition", "setting": "Homo sapiens [32]", "result": "Dose-dependent effect"}, {"measurement": "Activity", "setting": "Mus musculus [33]", "result": "Non-toxic"}]}
